# According to PubChem BioAssay (NCI):
#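 The compound was tested at five concentrations on cells cultured in 96-well plates, with a 48-hour exposure period. GI50 marks 50% less growth. TGI: concentration producing complete growth inhibition.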
# Assays:
# Assay in all cases: NCI anticancer screen, dose series, 48 h
# OVCAR-3 ovarian = tested on: OVCAR-3 ovarian
# KM12 colon = tested on: KM12 colon
# NCI-H460 lung = tested on: NCI-H460 lung
# U251 CNS = tested on: U251 CNS
# HCT-116 colon = tested on: HCT-116 colon
# CCRF-CEM leukemia = tested on: CCRF-CEM leukemia
# M14 melanoma = tested on: M14 melanoma
# EKVX NSCLC = tested on: EKVX NSCLC
# SNB-75 CNS = tested on: SNB-75 CNS
# SF-539 CNS = tested on: SF-539 CNS
# SK-OV-3 ovarian = tested on: SK-OV-3 ovarian
# DU-145 prostate = tested on: DU-145 prostate
# HCC-2998 colon = tested on: HCC-2998 colon
# OVCAR-5 ovarian = tested on: OVCAR-5 ovarian
# SNB-19 CNS = tested on: SNB-19 CNS
# MDA-MB-435 = tested on: MDA-MB-435
# MDA-MB-231 breast = tested on: MDA-MB-231 breast
# A549 NSCLC = tested on: A549 NSCLC
# OVCAR-8 ovarian = tested on: OVCAR-8 ovarian
# MALME-3M melanoma = tested on: MALME-3M melanoma
# T-47D breast = tested on: T-47D breast
# NCI/ADR-RES ovarian = tested on: NCI/ADR-RES ovarian
# A498 renal = tested on: A498 renal
# HCT-15 colon = tested on: HCT-15 colon
# SK-MEL-28 melanoma = tested on: SK-MEL-28 melanoma
# RPMI-8226 leukemia = tested on: RPMI-8226 leukemia
# UO-31 renal = tested on: UO-31 renal
# MCF7 breast = tested on: MCF7 breast
# HOP-62 NSCLC = tested on: HOP-62 NSCLC
# HOP-92 NSCLC = tested on: HOP-92 NSCLC
# SR leukemia = tested on: SR leukemia
# K-562 leukemia = tested on: K-562 leukemia
# SK-MEL-5 melanoma = tested on: SK-MEL-5 melanoma
# OVCAR-4 ovarian = tested on: OVCAR-4 ovarian
# 786-0 renal = tested on: 786-0 renal
# RXF 393 renal = tested on: RXF 393 renal
# UACC-257 melanoma = tested on: UACC-257 melanoma
# NCI-H226 lung = tested on: NCI-H226 lung
# CAKI-1 renal = tested on: CAKI-1 renal
# SF-295 CNS = tested on: SF-295 CNS
# HT29 colon = tested on: HT29 colon
# HS 578T breast = tested on: HS 578T breast
# MOLT-4 leukemia = tested on: MOLT-4 leukemia
# SK-MEL-2 melanoma = tested on: SK-MEL-2 melanoma
# PC-3 prostate = tested on: PC-3 prostate
# NCI-H522 lung = tested on: NCI-H522 lung
# BT-549 breast = tested on: BT-549 breast
# COLO 205 colon = tested on: COLO 205 colon
# SN12C renal = tested on: SN12C renal
# TK-10 renal = tested on: TK-10 renal
# ACHN renal = tested on: ACHN renal
# IGROV1 ovarian = tested on: IGROV1 ovarian
# UACC-62 melanoma = tested on: UACC-62 melanoma
# LOX IMVI melanoma = tested on: LOX IMVI melanoma
# SW-620 colon = tested on: SW-620 colon
# SF-268 CNS = tested on: SF-268 CNS
smiles,measurement,setting,value
COc1ccc(C2C(C#N)=C(N)Oc3c2sc2ccc(C)cc32)cc1 (configuration not stated),GI50,OVCAR-3 ovarian,3.71 µM
same,TGI,OVCAR-3 ovarian,> 100 µM
same,GI50,KM12 colon,3.81 µM
same,TGI,KM12 colon,> 100 µM
same,GI50,NCI-H460 lung,3.41 µM
same,TGI,NCI-H460 lung,18.3 µM
same,GI50,U251 CNS,3.78 µM
same,TGI,U251 CNS,27.5 µM
same,GI50,HCT-116 colon,3.68 µM
same,TGI,HCT-116 colon,83.9 µM
same,GI50,CCRF-CEM leukemia,3.78 µM
same,TGI,CCRF-CEM leukemia,> 100 µM
same,GI50,M14 melanoma,2.84 µM
same,TGI,M14 melanoma,14.6 µM
same,GI50,EKVX NSCLC,7.35 µM
same,TGI,EKVX NSCLC,> 100 µM
same,GI50,SNB-75 CNS,1.9 µM
same,TGI,SNB-75 CNS,5.51 µM
same,GI50,SF-539 CNS,3.21 µM
same,TGI,SF-539 CNS,13.4 µM
same,GI50,SK-OV-3 ovarian,5.2 µM
same,TGI,SK-OV-3 ovarian,54.8 µM
same,GI50,DU-145 prostate,7.08 µM
same,TGI,DU-145 prostate,> 100 µM
same,GI50,HCC-2998 colon,6.37 µM
same,TGI,HCC-2998 colon,> 100 µM
same,GI50,OVCAR-5 ovarian,5.77 µM
same,TGI,OVCAR-5 ovarian,> 100 µM
same,GI50,SNB-19 CNS,6.01 µM
same,TGI,SNB-19 CNS,86.7 µM
same,GI50,MDA-MB-435,0.568 µM
same,TGI,MDA-MB-435,2.17 µM
same,GI50,MDA-MB-231 breast,9.6 µM
same,TGI,MDA-MB-231 breast,86.7 µM
same,GI50,A549 NSCLC,6.94 µM
same,TGI,A549 NSCLC,> 100 µM
same,GI50,OVCAR-8 ovarian,9.93 µM
same,TGI,OVCAR-8 ovarian,> 100 µM
same,GI50,MALME-3M melanoma,3.56 µM
same,TGI,MALME-3M melanoma,62.3 µM
same,GI50,T-47D breast,3.13 µM
same,TGI,T-47D breast,> 100 µM
same,GI50,NCI/ADR-RES ovarian,3.34 µM
same,TGI,NCI/ADR-RES ovarian,> 100 µM
same,GI50,A498 renal,47 µM
same,TGI,A498 renal,> 100 µM
same,GI50,HCT-15 colon,3.35 µM
same,TGI,HCT-15 colon,> 100 µM
same,GI50,SK-MEL-28 melanoma,5.86 µM
same,TGI,SK-MEL-28 melanoma,> 100 µM
same,GI50,RPMI-8226 leukemia,3.95 µM
same,TGI,RPMI-8226 leukemia,> 100 µM
same,GI50,UO-31 renal,3.56 µM
same,TGI,UO-31 renal,> 100 µM
same,GI50,MCF7 breast,1.25 µM
same,TGI,MCF7 breast,> 100 µM
same,GI50,HOP-62 NSCLC,3.71 µM
same,TGI,HOP-62 NSCLC,28.1 µM
same,GI50,HOP-92 NSCLC,1.05 µM
same,TGI,HOP-92 NSCLC,7.07 µM
same,GI50,SR leukemia,2.42 µM
same,TGI,SR leukemia,> 100 µM
same,GI50,K-562 leukemia,1.56 µM
same,TGI,K-562 leukemia,> 100 µM
same,GI50,SK-MEL-5 melanoma,10.7 µM
same,TGI,SK-MEL-5 melanoma,> 100 µM
same,GI50,OVCAR-4 ovarian,8.07 µM
same,TGI,OVCAR-4 ovarian,> 100 µM
same,GI50,786-0 renal,3.64 µM
same,TGI,786-0 renal,15.1 µM
same,GI50,RXF 393 renal,2.64 µM
same,TGI,RXF 393 renal,9.98 µM
same,GI50,UACC-257 melanoma,4.03 µM
same,TGI,UACC-257 melanoma,> 100 µM
same,GI50,NCI-H226 lung,3.92 µM
same,TGI,NCI-H226 lung,57.5 µM
same,GI50,CAKI-1 renal,3.52 µM
same,TGI,CAKI-1 renal,56.4 µM
same,GI50,SF-295 CNS,3.93 µM
same,TGI,SF-295 CNS,28.6 µM
same,GI50,HT29 colon,3.14 µM
same,TGI,HT29 colon,9.79 µM
same,GI50,HS 578T breast,3.31 µM
same,TGI,HS 578T breast,36.8 µM
same,GI50,MOLT-4 leukemia,3.63 µM
same,TGI,MOLT-4 leukemia,> 100 µM
same,GI50,SK-MEL-2 melanoma,2.2 µM
same,TGI,SK-MEL-2 melanoma,7.49 µM
same,GI50,PC-3 prostate,3.46 µM
same,TGI,PC-3 prostate,> 100 µM
same,GI50,NCI-H522 lung,1.24 µM
same,TGI,NCI-H522 lung,4.48 µM
same,GI50,BT-549 breast,2.7 µM
same,TGI,BT-549 breast,7.68 µM
same,GI50,COLO 205 colon,3.7 µM
same,TGI,COLO 205 colon,> 100 µM
same,GI50,SN12C renal,4.46 µM
same,TGI,SN12C renal,> 100 µM
same,GI50,TK-10 renal,23 µM
same,TGI,TK-10 renal,> 100 µM
same,GI50,ACHN renal,6.44 µM
same,TGI,ACHN renal,> 100 µM
same,GI50,IGROV1 ovarian,4.64 µM
same,TGI,IGROV1 ovarian,> 100 µM
same,GI50,UACC-62 melanoma,3.26 µM
same,TGI,UACC-62 melanoma,49.9 µM
same,GI50,LOX IMVI melanoma,5.92 µM
same,TGI,LOX IMVI melanoma,> 100 µM
same,GI50,SW-620 colon,2.81 µM
same,TGI,SW-620 colon,> 100 µM
same,GI50,SF-268 CNS,5.24 µM
same,TGI,SF-268 CNS,> 100 µM
